Here are results for eleven compounds from patent publication US4402975A, “Aminocarboxylic acids, amino alcohols, or the derivatives thereof, processes for production thereof, and pharmaceutical uses thereof” (Teijin Limited, priority 1980, dated 1983).

Structures can show the parent of a compound that is named as a salt.

One assay concerns the target T1, plasmin (Homo sapiens, UniProt P00747).
T1 construct: fibrin clot lysis, native
The experiment in a line: Antiplasmin activity (clot lysis time, fibrinogen/urokinase/thrombin). The assay is classed as biochemical. The procedure: Human fibrinogen was dissolved in a phosphate-buffered physiological saline (PBS) at a pH of 7.4 to prepare a 0.2% solution. Urokinase and thrombin were dissolved similarly in PBS to prepare a solution containing 120 units of urokinase and 50 units of thrombin per ml. […] Then, 0.1 ml of the urokinase-thrombin mixed solution was added, and a microchronometer was started. One minute after the starting of the microchronometer, a glass ball having a diameter of 8 mm was put on the coagulated surface, and the incubation was continued. The time which elapsed from the dissolution of the coagulated mass until the glass ball dropped onto the bottom of the test tube was measured. As a control, PBS alone was added.

The test system of a further assay is serotonin ulcer. The experiment in a line: Inhibitory activity on serotonin ulcer. As to conditions: 30 min before serotonin 20 mg/kg s.c., rats. Format: in vivo, SD-strain male rats. The protocol: Seven week-old SD-strain male rats (body weight 200 to 220 g) were fasted for 24 hours but water was provided freely, and then used in the following experiment. Each of the test compounds suspended in 0.5% CMC was administered to the rats either orally or intraperitoneally, and 30 minutes later, serotonin (serotonin creatinine sulfate) was subcutaneously administered to the rats in a dose of 20 mg/kg. Four hours later, the animals were sacrificed. The abdomen was cut open, and the stomach was taken out from each animal. 12 ml of 1% formalin was injected into the stomach to inflate it, and the stomach was further dipped for about 10 minutes in 1% formalin for fixation. Then, the stomach was cut open on the side of the lesser curvature, and spread on a glass plate. The area of ulcers generated in the glandular stomach was measured by using a solid microscope. The sum of the area of ulcer for each animal was used as the ulcer index. The ulcer inhibiting ratio of the test compound was calculated in accordance with the following equation. [formula] The control group was given 0.5% CMC and serotonin alone.

The subject of a further assay is thrombin. The experiment in a line: Antithrombin activity (recalcification time of plasma). The following applies: rabbit plasma.
The test system of the next assay is indomethacin ulcer. Briefly: Inhibitory activity on indomethacin ulcer. Format: in vivo, SD-strain male rats. The following applies: 400 mg/kg oral, 30 min before indomethacin 20 mg/kg oral, rats. The procedure: Seven week-old SD-strain male rats (body weight 200 to 220 g) were fasted for 24 hours but water was provided freely, and then used in the following experiment.
Each of the test compounds suspended in 0.5% CMC was orally administered to the rats, and 30 minutes later, indomethacin was orally administered in a dose of 20 mg/kg. Six hours later, the animals were sacrificed. The abdomen was cut open, and the stomach was removed. 1% Evan's blue was injected in an amount of 0.5 ml/rat into the rats through the tail vein under ether anesthesia 10 minutes before sacrificing.
12 ml of a 1% formalin was injected into the stomach and the stomach was further dipped in 1% formalin for about 10 minutes for the fixation. The stomach was cut open on the side of the greater curvature, and spread on a glass plate. The lengths of ulcers generated in the glandular stomach were measured by using a solid microscope. The sum of the lengths of the ulcers for each animal was used as the ulcer index. The ulcer inhibiting ratio of the test compound was calculated in accordance with the following equation. [formula]
The control group was given 0.5% CMC and indomethacin alone.

Another assay relates to gastric secretion. Briefly: Inhibitory activity on gastric secretion (pylorus ligation). The assay is classed as in vivo, male rats. The following applies: for Amount of gastric juice: 4 hours after pylorus ligation, control 6.8 ± 0.6, in ml (unit assumed); for Acidity: control 109.1 ± 1.7. The procedure: Seven week-old DS-strain male rats (body weight 200 to 220 g) were fasted for 24 hours but water was provided freely, and then used in the following experiment.
The rats were anesthetized with ether. The abdomen was cut open along the median line to expose the pylorus. Then, the pylorus was ligated. After ligation, each of the test compounds dissolved in physiological saline was intraperitoneally administered to the animals. The abdomen was sutured, and after confirming that the animals recovered from ether anesthesia, they were kept in a wire cage while being deprived of food and water. Four hours later, the animals were killed by using ether. The abdomen was again cut open, and the stomach was removed. The gastric juice was collected, and its volume and acidity was measured. The acidity of the gastric juice was determined by titrating with 0.05 N sodium hydroxide using phenolphthalein as an indicator, and calculating the amount of sodium hydroxide required to neutralize the gastric juice which is estimated as the acidity of the gastric juice.
The control group was given physiological saline alone.
For the method of studying the inhibitory activity on the gastiic secretion, reference may be made to H. Shay, S. A. Komoroe, S. S. Fels, M. Meraze, M. Gruestein and H. Siplet: Gastroent., 5, 43 (1945), and M. L. Anson: J. Gen, Physiol., 21, 79 (1938).

Setting [1] is: 10^-3 M, first series, control 391.7 ± 16.1.
[2] abbreviates: 10^-4 M, first series, control 391.7 ± 16.1.
Setting [3] is: 5 × 10^-3 M, second series, control 103.3 ± 7.6.
Where [4] appears, read: 5 × 10^-4 M, second series, control 103.3 ± 7.6.
Where [5] appears, read: 10^-3 M, second series, control 556.7 ± 12.6.
[6] abbreviates: 10^-4 M, second series, control 556.7 ± 12.6.

T1 sequence (P00747 97-810): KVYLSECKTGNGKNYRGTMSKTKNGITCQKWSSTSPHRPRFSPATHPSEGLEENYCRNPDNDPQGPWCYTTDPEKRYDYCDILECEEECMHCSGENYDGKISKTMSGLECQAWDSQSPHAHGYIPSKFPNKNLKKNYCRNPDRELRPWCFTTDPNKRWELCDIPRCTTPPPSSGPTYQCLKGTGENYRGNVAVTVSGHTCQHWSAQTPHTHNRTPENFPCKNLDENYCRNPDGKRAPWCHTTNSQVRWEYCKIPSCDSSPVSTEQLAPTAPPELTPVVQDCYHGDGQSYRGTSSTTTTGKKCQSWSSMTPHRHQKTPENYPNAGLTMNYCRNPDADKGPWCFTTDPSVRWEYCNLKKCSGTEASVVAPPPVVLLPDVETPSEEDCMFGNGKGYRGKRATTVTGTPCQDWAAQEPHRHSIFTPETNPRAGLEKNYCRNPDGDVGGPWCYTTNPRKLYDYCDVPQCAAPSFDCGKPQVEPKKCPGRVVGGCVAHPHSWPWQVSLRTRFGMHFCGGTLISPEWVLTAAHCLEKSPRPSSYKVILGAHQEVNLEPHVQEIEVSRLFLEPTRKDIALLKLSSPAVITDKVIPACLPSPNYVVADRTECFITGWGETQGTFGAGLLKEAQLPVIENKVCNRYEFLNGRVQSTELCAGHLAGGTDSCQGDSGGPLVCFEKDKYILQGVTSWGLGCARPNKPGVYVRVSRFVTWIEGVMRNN

`Cl.NC[C@H]1CC[C@H](C(O)c2ccc(CCC(=O)O)cc2)CC1` (relative stereo) [trans (307) hydrochloride, 3-[p-(trans-4-aminomethylcyclohexylhydroxymethyl)phenyl]propionic acid hydrochloride]: the Clot lysis time turned out to be 546.7 s at plasmin (setting [1]) and 411.7 s on plasmin (setting [2]). In the assay on serotonin ulcer (100 mg/kg intraperitoneal), the Ulcer inhibiting ratio stood at 68.7%. For the same compound, the results for the Recalcification time in the assay with thrombin (setting [3]) and in the assay on thrombin (setting [4]) were 80.7 s and 104.0 s, respectively.
In the case of `Cl.NCCCCCC(=O)c1ccc(CCC(=O)O)cc1` [(102) hydrochloride, 3-[p-(ε-aminocaproyl)phenyl]propionic acid hydrochloride], the values for the Clot lysis time at plasmin (setting [1]) and at plasmin (setting [2]) were 476.7 s and 423.3 s, respectively. In the assay with serotonin ulcer (100 mg/kg intraperitoneal), the Ulcer inhibiting ratio was 76.2%. Also, the Recalcification time with thrombin (setting [3]) turned out to be 67.0 s; in the assay on thrombin (setting [4]), 98.3 s.
With `Cl.NCc1ccc(C(=O)c2ccc(CCC(=O)O)cc2)cc1` [(112) hydrochloride, 3-[p-(4-aminomethylbenzoyl)phenyl]propionic acid hydrochloride], in the assay with serotonin ulcer (200 mg/kg oral), the Ulcer inhibiting ratio came out at 95.6%.
Take `CCOC(=O)CCc1ccc(C(=O)CCCCCN)cc1` [(121) hydrochloride, ethyl 3-[p-ε-aminocaproyl)phenyl]propionate hydrochloride]: the Clot lysis time was found to be 670.0 s on plasmin (setting [5]) and 543.3 s on plasmin (setting [6]). For the same compound, the Ulcer inhibiting ratio in the assay with indomethacin ulcer turned out to be 89.7%; in the assay with serotonin ulcer (100 mg/kg oral), 72.3%. Besides, the “Inhibition ratio (acidity)” value in the assay on gastric secretion (50 mg/kg i.p.) amounted to 48.9%; in the assay with gastric secretion (100 mg/kg i.p.) it was 58.9%; with gastric secretion (200 mg/kg i.p.), 74.4%. In addition, the “Inhibition ratio (amount of gastric juice)” value in the assay with gastric secretion (50 mg/kg i.p.) is reported as 77.9%; with gastric secretion (100 mg/kg i.p.), 94.1%; in the assay on gastric secretion (200 mg/kg i.p.), 94.1%. The “Amount of gastric juice” value stood at 1.5 ± 0.4 in the assay on gastric secretion (50 mg/kg i.p.), 0.4 ± 0.1 in the assay on gastric secretion (100 mg/kg i.p.) and 0.4 ± 0.1 in the assay on gastric secretion (200 mg/kg i.p.). Also, the Acidity was 55.7 ± 9.3 μeq./ml with gastric secretion (50 mg/kg i.p.), 44.8 ± 5.0 μeq./ml with gastric secretion (100 mg/kg i.p.) and 27.9 ± 4.4 μeq./ml in the assay with gastric secretion (200 mg/kg i.p.). The Recalcification time in the assay on thrombin (setting [3]) was found to be 96.0 s.
With `NCCCCCC(O)c1ccc(CCC(=O)O)cc1` (stereo not shown) [(302), 3-[p-(6-amino-1-hydroxyhex-1-yl)phenyl]-propionic acid], the Clot lysis time on plasmin (setting [5]) amounted to 736.7 s; on plasmin (setting [6]) it was 521.7 s. Also, in the assay with serotonin ulcer (100 mg/kg oral), the Ulcer inhibiting ratio amounted to 68.1%. For the same compound, in the assay on thrombin (setting [3]), the Recalcification time is 82.7 s.
As to `NCC1CCC(C(=O)Oc2ccc(CCC(=O)O)cc2)CC1` (stereo not shown) [drawing 47, reference compound], the Ulcer inhibiting ratio is on record as 17.5% in the assay with serotonin ulcer (100 mg/kg oral) and 73.8% with serotonin ulcer (300 mg/kg oral).
Take `NCC1CCC(C(=O)Oc2ccc(CCC(=O)O)cc2)CC1` (stereo not shown) [drawing 52, reference compound]: in the assay on gastric secretion (200 mg/kg i.p.), the “Inhibition ratio (acidity)” value is given as 52.5%, the “Inhibition ratio (amount of gastric juice)” value worked out at 72.1%, the “Amount of gastric juice” value is 1.9 ± 0.6 and the Acidity came to 51.8 ± 10.0 μeq./ml. For the same compound, in the assay on gastric secretion (400 mg/kg i.p.), the “Inhibition ratio (acidity)” value worked out at 70.3%, the “Inhibition ratio (amount of gastric juice)” value is reported as 86.8%, the “Amount of gastric juice” value worked out at 0.9 ± 0.2 and the Acidity was found to be 32.4 ± 2.4 μeq./ml.
Regarding `NCC1CCC(C(=O)Oc2ccc(CCC(=O)O)cc2)CC1` (stereo not shown) [drawing 54, reference compound], the Clot lysis time on plasmin (setting [1]) is over 1800 s; on plasmin (setting [2]), over 1800 s; at plasmin (10^-5 M, first series, control 391.7 ± 16.1), 1045.0 ± 13.2 s; on plasmin (10^-6 M, first series, control 391.7 ± 16.1) it was 441.7 ± 21.8 s.
Consider `NCC1CCC(C(=O)Oc2ccc(CCC(=O)O)cc2)CC1` (stereo not shown) [drawing 56, reference compound], for which the Clot lysis time at plasmin (10^-5 M, second series, control 556.7 ± 12.6) was 1398 ± 53.0 s; at plasmin (10^-6 M, second series, control 556.7 ± 12.6), 600.0 ± 37.7 s.
For the compound `NCC1CCC(C(=O)Oc2ccc(CCC(=O)O)cc2)CC1` (stereo not shown) [drawing 58, reference compound], the Recalcification time in the assay on thrombin (5 × 10^-4 M, first series, […]) stood at 122.7 ± 2.5 s; with thrombin (5 × 10^-5 M, first series, […]) it was 115.3 ± 1.2 s.
Consider `NCC1CCC(C(=O)Oc2ccc(CCC(=O)O)cc2)CC1` (stereo not shown) [drawing 60, reference compound], for which the Recalcification time in the assay on thrombin (5 × 10^-5 M, second series, control 103.3 ± 7.6) was 144.0 ± 2.6 s; in the assay with thrombin (5 × 10^-6 M, second series, control 103.3 ± 7.6), 114.7 ± 2.5 s.
